Test results taken from US10421718B2, “EBNA1 inhibitors and their method of use” (priority 2013, dated 2019).
Where a name gives a salt, the structure may show the parent alone.

target: T1, His-EBNA1 (DNA binding domain of EBNA1, amino acids 459-607) (Epstein-Barr virus, UniProt P03211); assay: Inhibition of 5′-biotin-oPL4624 binding to His-EBNA1 using Alpha Screen technology; settings: Alpha Screen Activity (IC50, inhibition of 5′-biotin-oPL4624 binding to His-EBNA1), 15 nM His-EBNA1, 0.2 nM bt-oPL4624, 2 hr room temperature
T1 construct: made in house; host or cells: E. coli
T1 sequence (P03211 459-607): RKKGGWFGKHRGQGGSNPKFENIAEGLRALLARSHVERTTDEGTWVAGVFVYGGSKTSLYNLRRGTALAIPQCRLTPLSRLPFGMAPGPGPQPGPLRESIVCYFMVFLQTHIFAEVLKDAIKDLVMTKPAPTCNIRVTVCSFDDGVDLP
Experimental: Inhibition of 5′-biotin-oPL4624 binding to His-EBNA1 using Alpha Screen technology: Assays were performed using the DNA binding domain of EBNA1 (amino acids 459-607), which was His-tagged (His-EBNA1) and the self-complementary biotinylated (bt) oligonucleotide with the sequence 5′-bt-[…]-ATGCTACCC-3′ (bt-oPL4624). The protein was expressed in E. coli and purified according to Barwell, et al. (Barwell J A, Bochkarev A, Pfuetzner R A, Tong H, Yang D S, Frappier L, Edwards A M. (1995) Overexpression, purification, and crystallization of the DNA binding and dimerization domains of the Epstein-Barr virus nuclear antigen 1. J Biol Chem. 270: 20556-9.). The bt-oPL4624 oligonucleotide was purchased from Integrated DNA Technologies, Inc (IDT). AlphaScreen donor, acceptor beads and white, opaque 384-well assay plates were purchased from PerkinElmer, Inc.
Assays contained 15 nM His-EBNA1, 0.2 nM bt-oPL4624, 5 μg/mL AlphaScreen streptavidin donor beads and nickel chelate acceptor beads, and a series of concentrations of test compound ranging from 3.2 nM to 100 μM in a total volume of 40 μL assay buffer (25 mM Tris, pH 7.2, 160 mM NaCl, 1 mM MgCl2). His-EBNA1 (30 nM) and bt-oPL4624 (0.4 nM) were preincubated with 10 μg/mL nickel chelate AlphaScreen acceptor bead, or 10 μg/mL streptavidin AlphaScreen donor bead, respectively, for 30 minutes at room temperature in assay buffer. Twenty microliters of His-EBNA1/acceptor bead mix and bt-oPL4624/donor bead mix were transferred to assay plates containing […] of 1:3 serial dilutions of test compounds previously prepared in DMSO at concentrations ranging from 0.32 μM to 10 mM. Nonspecific binding was determined with 5 μg/mL AlphaScreen acceptor bead in the absence of His-EBNA1. After 2 hr incubation at room temperature, the AlphaScreen signal was measured on the Envision plate reader (PerkinElmer, Inc.) at 680 nm excitation and 570 nm emission. Inhibition values at each concentration of test compound were determined by setting 100% equal to raw data values in the absence of EBNA1 and 0% equal to the raw data values in the presence of EBNA1. Nonlinear regression fits of the inhibition values to a one-site dose-response equation were performed using GraphPad Prism.

First: O=C(O)c1cccc(C#Cc2cccc(O)c2)c1-c1cccc(O)c1 [Entry 269, 2-(3-hydroxyphenyl)-3-[2-(3-hydroxyphenyl)ethynyl]benzoic acid]
Second: COc1cccc(-c2c(C#Cc3ccccc3)cccc2C(=O)O)c1 [Entry 120, 2-(3-methoxyphenyl)-3-(2-phenylethynyl)benzoic acid]
The IC50 of the first is higher: 10 to 100 µM for the first, 1 to 10 µM for the second. The second is the more potent here.

Compared with Cc1ccc(-c2c(C#Cc3ccccc3)cccc2C(=O)O)cc1 [Entry 125, 2-(4-methylphenyl)-3-(2-phenylethynyl)benzoic acid], CS(=O)(=O)c1ccc(-c2c(C#Cc3ccccc3)cccc2C(=O)O)cc1 [Entry 98, 2-(4-methanesulfonylphenyl)-3-(2-phenylethynyl)benzoic acid] is higher in IC50: 1 to 10 µM for the first, 10 to 100 µM for the second.

First: O=C(O)c1cccc(C#Cc2ccccc2)c1-n1cccn1 [Entry 295, 3-phenylethynyl-2-pyrazol-1-yl-benzoic acid]
Second: NS(=O)(=O)NC(=O)c1cccc(C#Cc2ccccc2)c1-n1cccc1 [Entry 118, 3-(phenylethynyl)-2-(1H-pyrrol-1-yl)-N-sulfamoylbenzamide]
The IC50 of the first is higher: 100 to 1000 µM for the first, 10 to 100 µM for the second.

First: O=C(Nc1cccc(C#Cc2cccc(C(=O)O)c2-c2ccc3cc[nH]c3c2)c1)c1cccnc1 [Entry 231, 2-(1H-indol-6-yl)-3-((3-(nicotinamido)phenyl)ethynyl)benzoic acid]
Second: CC(=O)Nc1ccc(C#Cc2cccc(C(=O)O)c2-c2ccc3cc[nH]c3c2)cc1 [Entry 213, 3-(4-acetylamino-phenylethynyl)-2-(1H-indol-6-yl)-benzoic acid]
The IC50 of the first is lower: 1 to 10 µM for the first, 10 to 100 µM for the second. The first is the more potent here.

First: CC(C)(CNc1cccc(C#Cc2cccc(C(=O)O)c2-n2cccc2)c1)C(=O)O [Entry 10, 3-(2-{3-[(2-carboxy-2,2-dimethylethyl)amino]phenyl}ethynyl)-2-(1H-pyrrol-1-yl)benzoic acid]
Second: O=C(O)c1cccc(C#Cc2ccc(CO)cc2)c1-n1cccc1 [Entry 20, 3-{2-[4-(hydroxymethyl)phenyl]ethynyl}-2-(1H-pyrrol-1-yl)benzoic acid]
The IC50 of the first is higher: 1 to 10 µM for the first, less than 1 µM for the second.

Cc1nc2cc(-c3c(C#Cc4c[nH]c5ncccc45)cccc3C(=O)O)ccc2s1 [Entry 168, 2-(2-methyl-1,3-benzothiazol-5-yl)-3-(2-{1H-pyrrolo[2,3-b]pyridin-3-yl}ethynyl)benzoic acid] and O=C(O)c1cccc(C#Cc2c[nH]c3ncccc23)c1 [Entry 76, 3-(2-{1H-pyrrolo[2,3-b]pyridin-3-yl}ethynyl)benzoic acid] fall in the same range of IC50: 10 to 100 µM for the first, 10 to 100 µM for the second.

Cn1ccc2cc(C#Cc3cccc(C(=O)O)c3-n3cccc3)ccc21 [Entry 16, 3-[2-(1-methyl-1H-indol-5-yl)ethynyl]-2-(1H-pyrrol-1-yl)benzoic acid] and O=C(O)c1cccc(C#Cc2ccc3c(c2)NCC3)c1-n1cccc1 [Entry 23, 3-[2-(2,3-dihydro-1H-indol-6-yl)ethynyl]-2-(1H-pyrrol-1-yl)benzoic acid] cannot be ordered by IC50: less than 1 µM for the first, less than 1 µM for the second.

CCOC(=O)c1cc2ccc(-c3c(C#Cc4ccccc4)cccc3C(=O)O)cc2[nH]1 [Entry 251, 2-(2-(ethoxycarbonyl)-1H-indol-6-yl)-3-(phenylethynyl)benzoic acid] and O=C(O)c1cccc(C#CCNc2ccc3[nH]cnc3c2)c1-c1ccccc1 [Entry 262, 3-{3-[(1H-1,3-benzodiazol-6-yl)amino]prop-1-yn-1-yl}-2-phenylbenzoic acid; trifluoroacetate salt] fall in the same range of IC50: 1 to 10 µM for the first, 1 to 10 µM for the second.

First: O=C(O)c1cccc(C#CC2CC2)c1-n1cccc1 [Entry 62, 3-(2-cyclopropylethynyl)-2-(1H-pyrrol-1-yl)benzoic acid]
Second: O=C(O)c1cccc(C#CCN2CCCC2)c1-c1ccccc1 [Entry 160, 2-phenyl-3-[3-(pyrrolidin-1-yl)prop-1-yn-1-yl]benzoic acid]
The IC50 of the first is lower: less than 1 µM for the first, 10 to 100 µM for the second.

For O=C(O)c1cccc(C#Cc2cnc3cnccn23)c1F [Entry 87, 2-fluoro-3-(2-{imidazo[1,2-a]pyrazin-3-yl}ethynyl)benzoic acid], the IC50 was less than 1 µM.
